Measurements: patent publication US11207331B2, “Agents, compositions and methods for enhancing neurological function” (University of Southern California, priority 2007, dated 2021)

Experiments:
[1] = test system: three month old male 3×TgAD mouse hippocampus; assay: Flow cytometry of BrdU labeled cells 24 hours after subcutaneous or transdermal THP; type: in vivo
Protocol: Flow cytometry assay detected total BrdU labeled cells 24 hours following THP administration via (A) subcutaneous and (B) transdermal routes. […] BrdU (100 mg/kg) was administered by intraperitoneal injection one hour after THP administration. Transdermal gel THP dose-response for 5, 10, and 50 mg/kg (FIG. 21B) was compared to 0 mg/kg control vehicle (negative control) and subcutaneous injection of 10 mg/kg (positive control) (FIG. 21A). […] Immunoblots of proliferating cell nuclear antigen (PCNA), an S-phase marker and cyclin dependent kinase 1 (CDK1/cdc2), an M-phase marker, are shown in FIGS. 21C and 21D, respectively. Hippocampus protein expression of PCNA and CDK1/cdc2 was normalized to β-tubulin loading control and compared relative to the vehicle control by immunoblot. […] The data were analyzed by one way ANOVA followed by a t test (two samples assuming equal variance) vs. vehicle. Data are presented as the mean±SEM, n=5, *=P<0.05, and **=P<0.01.

hippocampal neural cells = assay: Mitotic appearance (doublet cell body) of cultured hippocampal neural cells; type: cell-based, rat
Protocol: Hippocampal neural cells were obtained from an embryonic day 18 rat hippocampus. The samples contained approximately 12,000 neurons/sample. The sample was 95% neuronal. No selection for neuronal subtypes was conducted. Hippocampal neurons were treated with 3α-hydroxy-5α-pregnan-20-one (THP). 3α-hydroxy-5α-pregnan-20-one (THP) was added to two samples containing hippocampal neural cells at a concentration of either 10 nanomolar (nM) and 100 nanomolar (nM). The cells were incubated for 24 hrs at 37° C. Neurons were grown in a defined medium, Neurobasal+B27 supplement in the absence (control) or presence of THP or other test molecule (experimental). The samples with added THP were compared with a control sample containing only hippocampal neural cells. Changes in the mitotic appearance of the neural cells were observed. A mitotic appearance of a particular neural cell is defined as a doublet form in the cell body of the neural cell. The doublet form is indicative of a neural cell undergoing mitosis.
The experiment described above was repeated only THP was added to three samples containing hippocampal neural cells at a concentration of 100 nanomolar (nM), 250 nM and 500 nM. The samples with added THP were compared with a control sample containing only hippocampal neural cells. […] Data are expressed as percent of mean+SEM,**p<0.01, ***p<. 001.

[2] = test system: BrdU positive cells per hippocampus; assay: Survival of BrdU labeled cells in hippocampus after behavioural testing; type: in vivo, mouse
Protocol: Mice of each genotype and age received a subcutaneous (s.c.) injection of THP at a concentration of 10 mg/kg body weight (BW), an optimal dose of THP-[…] based on our previous studies. One hour after THP injection, mice were intraperitoneally (i.p.) injected with 100 mg/kg BW bromodeoxyuridine (BrdU). Two experimental paradigms were used: 1) THP treatment for behavior and cell survival assessment, in which animals received a single shot of THP/vehicle, followed by a 7-day neurogenesis and migration phase, followed by a 5-day trace-conditioning test followed 9 days later by a 1-day memory test, and scarified 21 days after a single THP injection at which time FACS analysis of BrdU positive cells was performed to assess cell survival; 2).
Hippocampus was dissected from the fixed hemispheres from cell survival assessment experiment using consistent anatomical landmarks as criteria for dissection as described in the literature. The rostral ⅓ of the hippocampus lobe was removed to avoid the subventricular zone and rostral migratory stream proliferative pools. The extracted hippocampi were homogenized using Next advance 24 sample homogenizer (Next Advance Inc., NY) for 3 minutes on speed 7. This procedure lyses the plasma lemma while preserves the nuclear envelope intact. The nuclei sample was collected into a regular 1.5 mL microcentrifuge tube by washing the beads and tube 4 times using 200 μL of PBS, and then centrifuged for 10 minutes at 10,000 rpm. Once all of the nuclei were collected in a pellet, the supernatant was discarded. The pellet was then re-suspended in 600 μL of PBS plus 0.5% Triton x-100. The number of nuclear density was estimated by counting the propidium iodide (PI), a fluorescent molecule stoichiometrically binds to DNA by intercalating between the bases with no sequence preference, positive particles. Aliquots of 25 μl were re-suspended in 200 μL of a 0.2 M solution of boric acid, pH 9.0, and heated for 1 h at 75° C. for epitope retrieval. After washed in PBS, the nuclei were incubated for 24 hours at 4° C. with primary mouse monoclonal anti-BrdU antibody (1:100, Abcam, Ab12219) and subsequently with FITC-conjugated goat anti-mouse IgG secondary antibody (1:100 in PBS; Vector Labs, FI-2001). The remainder of cell suspension is diluted to 500 μL and sent for flow cytometry assay using Beckman FC 500 System with CXP Software. Propidium iodide (PI) cells were first gated on a histogram; the expressing cells were visualized on a forward/side scatter plot. PI cells were ‘back-gated’ on the forward/side scatter plot to eliminate debris prior to analysis; this also eliminated auto fluorescence of the sample. Gates were always set using dissociates with cell aliquots which lack of the first antibody, but which were incubated with second antibody and processed alongside the experimental procedure. PI-labeled cells in a fixed volume were gated, and the number of cells showing BrdU signal was analyzed. Data were expressed as total positive cells per hippocampus.
To determine whether cognitive performance was correlated with survival of neuroprogenitor cells, hippocampi from behavioral test animals were analyzed for total number of BrdU positive cells using fluorescence activated cell sorting (FACS). As BrdU was administered one hour post THP injection at the start of the behavioral experiment, FACS analysis detected the total number of surviving BrdU+ cells and thus can be used as a marker of neural progenitor cells that survived and integrated into the hippocampal neuronal network. In 6-months-old vehicle treated non-Tg mice, BrdU+ cell survival was 2003.6±229.5.
We sought to determine whether cell survival was directly attributable to THP exposure or whether cell survival was dependent on the training experience. Thus, the relationship between survival of BrdU positive cells and cognitive performance on the memory phase of the behavioral testing was analyzed. […]

**Q.** How did the “BrdU cell numbers vs vehicle” value ([1]; 10 mg/kg dose) turn out when `CC(=O)[C@H]1CC[C@H]2[C@@H]3CC[C@H]4C[C@H](O)CC[C@]4(C)[C@H]3CC[C@]12C` [THP, 3α-hydroxy-5α-pregnan-20-one] was run?
**A.** significantly increases BrdU cell numbers

**Q.** What about the “optimal dose to significantly increase BrdU cell numbers” value ([1]; subcutaneous and transdermal routes) of the same compound?
**A.** 10 mg/kg

**Q.** What about the “fold increase in the mitotic phenotype of the neural cells vs control” value (hippocampal neural cells; 10 nM or 100 nM THP, 24 hrs) of the same compound?
**A.** ~2 fold

**Q.** And the “concentration with greatest induction of the mitotic phenotype” value (hippocampal neural cells; 100, 250, 500 nM tested)?
**A.** 500 nm

**Q.** What about the “fold increase in the mitotic phenotype of the neural cells vs control” value (hippocampal neural cells; 100, 250 and 500 nM THP) of the same compound?
**A.** 2-3 fold

**Q.** What about the “THP-induced proliferation (FACS BrdU) after 23 days of learning and memory” value ([2]; 3×TgAD mice, 3 and 6 month, declined with age thereafter) of the same compound?
**A.** Significant THP-induced proliferation

**Q.** And the “fold promotion of BrdU+ cell survival” value ([2]; 3×TgAD mice, 6-months-old)?
**A.** greater than 2 fold

**Q.** What about the “surviving BrdU+ cells per hippocampus (FACS)” value ([2]; 3×TgAD mice, 6-months-old, 21 days after 10 mg/kg) of the same compound?
**A.** 1372.5±326.2

**Q.** What about the “surviving BrdU+ cells per hippocampus (FACS)” value ([2]; 3×TgAD mice, 9-months-old) of the same compound?
**A.** 899.3±313.1

**Q.** What about the BrdU cells ([2]; 3×TgAD mice, survived BrdU cells) of the same compound?
**A.** 1088

**Q.** What about the “number of surviving cells generated 20 days prior to sacrifice” value ([2]; 3×TgAD mice, unbiased stereological analysis) of the same compound?
**A.** near doubling in the number of surviving cells

**Q.** And the “BrdU+ cell survival vs vehicle” value ([2]; 12-months-old non-tg and 3×TgAD mice)?
**A.** no significant effect

**Q.** And the “BrdU positive cells, treatment vs vehicle” value ([2]; Non-Tg mice, 3, 6, 9, 12 month)?
**A.** did not show statistical significance between treatment and vehicle groups

**Q.** What about the “BrdU+ cell number 21 days after THP administration” value ([2]; all ages) of the same compound?
**A.** an increase in BrdU+ cell number was observed at all ages

**Q.** What about the “surviving BrdU+ cells per hippocampus (FACS)” value ([2]; non-Tg mice, 6-months-old, 21 days after 10 mg/kg) of the same compound?
**A.** 2772.2±534.9

**Q.** What about the “surviving BrdU+ cells per hippocampus (FACS)” value ([2]; non-Tg mice, 9-months-old) of the same compound?
**A.** 2255.3±662.4
